Reference: PMC6030093, “Discovery of peptide probes to modulate oxytocin-type receptors of insects” (Scientific Reports, 2018)
Entries after “also recorded” stand apart in the source; their conditions may differ. Positions of bridges follow the written chain, without caps; N, C: chain ends. No end group written: not given here.

How the values were obtained:
[1] = tested on: T. castaneum inotocin receptor; assay: IP1 accumulation, agonist mode (T. castaneum inotocin receptor); type: cell-based, Tribolium castaneum
Source text: (§1) The T. castaneum receptor gene was kindly provided by Yoonseong Park (Kansas State University)[8], whereas the L. niger inotocin receptor gene had been cloned and sequenced as per Di Giglio et al.[11]. Both receptor constructs were subsequently cloned into the pEGFP-N1 expression plasmid, generating C-terminal EGFP fusion receptor proteins. Receptors were expressed in HEK293 cells (ATCC, CRL 1573) via transfection using the Lipofectamine 2000® transfection reagent. The use of mammalian cell lines to study the receptors of insects and other invertebrate species, in the same vain as orphan receptors from mammalian genomes, is considered a standard procedure. Various studies have utilized this approach[8],[9],[11]. Whilst such mammalian cell lines may not completely mimic insect cell biology, GPCRs and their signalling is highly homologous across the animal kingdom; it would be unlikely that the insect receptors would mis-fold in a mammalian cell line. Nevertheless, during assay optimization we routinely monitored surface expression of GFP-tagged receptors, and we only proceeded to pharmacological assays, if the receptor localized at the cell membrane. Moreover, most biochemical cell-based functional assays are optimized for mammalian cells. Whilst it is possible that insect cells could be utilized for these assays, it is unknown whether they endogenously express inotocin receptors. […] Accordingly, mammalian cells were cultured in DMEM supplemented with 10% FBS and penicillin/streptomycin (100 U mL^−1) and plated in 6-well plates prior to transfection. When cells had reached confluency, cells were transfected as per the manufacturer’s protocol with 2.5 µg per well of each respective receptor construct using a DNA:Lipofectamine 2000® ratio of 1:3 prepared in serum-free DMEM. After 4–6 h, cells were dissociated by trituration and replated into white opaque 384-well plates (CellStar®, Greiner, Kremsmünster, Austria) at approximately 10,000 cells per well. Cells were cultured for approximately 38–48 h in a humidified incubator at 37 °C and an atmosphere of 5% CO2, and then assayed for second messenger production. Verification of receptor expression was assessed via microscopic examination of membrane localised GFP fluorescence.
(§2) Quantitative measurements of receptor-mediated inositol 1-phosphate (IP1) were performed by competitive immunoassay utilising the IP-One assay kit (CisBio, France). HEK293 cells were prepared as described above and then assayed as per the manufacturer’s protocol. Briefly, at the time of assay, the culture media was removed from cells, and then replaced with IP-One stimulation buffer (HEPES 10 mM, CaCl2 1 mM, MgCl2 0.5 mM, KCl 4.2 mM, NaCl 146 mM, glucose 5.5 mM, LiCl 50 mM, pH 7.4). […] The stimulation was terminated by lysis and the simultaneous addition of homogenous time-resolved fluorescence resonance energy transfer reagents. […] Fluorescence emission measurements at 620 nm and 665 nm were performed using a FlexStation3 plate reader (Molecular Devices, Sunnyvale, CA) or Spark Multimode plate reader (Tecan, Männedorf, Switzerland) at an excitation wavelength of 340 nm. Results were analysed as a ratio of fluorescence intensities of 665 nm to 620 nm.
(§3) Data from cellular assays were analysed using GraphPad Prism 7.03 (GraphPad Software, San Diego). […]

[2] = tested on: L. niger inotocin receptor; assay: IP1 accumulation, agonist mode (L. niger inotocin receptor); type: cell-based, Lasius niger; settings: for Emax / LogEC50: HEK293 cells expressing L. niger receptor (C-terminal EGFP fusion), IP-One HTRF assay, mean ± S.E.M. from at least three independent experiments in triplicate; for Emax: 1 h at 37 °C; for LogEC50: pH 7.4, 1 h at 37 °C
Source text: as §1
Quantitative measurements of receptor-mediated inositol 1-phosphate (IP1) were performed by competitive immunoassay utilising the IP-One assay kit (CisBio, France). HEK293 cells were prepared as described above and then assayed as per the manufacturer’s protocol. Briefly, at the time of assay, the culture media was removed from cells, and then replaced with IP-One stimulation buffer (HEPES 10 mM, CaCl2 1 mM, MgCl2 0.5 mM, KCl 4.2 mM, NaCl 146 mM, glucose 5.5 mM, LiCl 50 mM, pH 7.4). Cells were allowed to equilibrate in the stimulation buffer at 37 °C for 15 min, followed by addition of peptide ligands (to final concentrations of 0.1 pM – 10 µM) for subsequent stimulation for 1 h at 37 °C. The stimulation was terminated by lysis and the simultaneous addition of homogenous time-resolved fluorescence resonance energy transfer reagents. The lysates were incubated for a minimum of 1 h at room temperature. Fluorescence emission measurements at 620 nm and 665 nm were performed using a FlexStation3 plate reader (Molecular Devices, Sunnyvale, CA) or Spark Multimode plate reader (Tecan, Männedorf, Switzerland) at an excitation wavelength of 340 nm. Results were analysed as a ratio of fluorescence intensities of 665 nm to 620 nm.
Data from cellular assays were analysed using GraphPad Prism 7.03 (GraphPad Software, San Diego). Concentration-response data were fitted to three- or four-parameter logistic equations to derive estimates of potency (LogEC50) and efficacy (Emax), relative to the maximal inotocin control response. Data from agonist-antagonist interaction experiments were fit to a Schild regression analysis.

human oxytocin receptor = settings: cited from earlier work
Source text: (§4) Compared to the level of identity between the T. castaneum inotocin receptor and its human counterparts (approximately 37–40% similarity ...

[3] = tested on: human vasopressin V1a receptor; settings: cited from earlier work
Source text: as §4

[4] = tested on: T. castaneum inotocin receptor; assay: Antagonism of inotocin-mediated IP1 accumulation, Schild analysis; type: cell-based, Tribolium castaneum; settings: HEK293, IP1
Source text: as §1, with “After 4–6 h, cells were dissociated by trituration and replated into white opaque 384-well plates (CellStar®, Greiner, Kremsmünster, Austria) at approximately 10,000 cells per well. Cells were cultured for approximately 38–48 h in a humidified incubator at 37 °C and an atmosphere of 5% CO2, and then assayed for second messenger production.” left out
as §2, with “France).” for “France). HEK293 cells were prepared as described above and then assayed as per the manufacturer’s protocol. Briefly, at the time of assay, the culture media was removed from cells, and then replaced with IP-One stimulation buffer (HEPES 10 mM, CaCl2 1 mM, MgCl2 0.5 mM, KCl 4.2 mM, NaCl 146 mM, glucose 5.5 mM, LiCl 50 mM, pH 7.4).”
as §3

[5] = tested on: T. castaneum inotocin receptor; settings: initial characterisation of the T. castaneum receptor; cited from earlier work
Source text: In parallel to characterising the inotocin receptor activity of kalata B7, we sought to identify an antagonist peptide. Our recent study with the L. niger inotocin peptide-receptor system[11] further emphasised the structural homology shared between inotocin receptors and human oxytocin/vasopressin receptors (Fig. 2, Table 1). […] Given this homology, we were interested in the ability of the oxytocin/V1a receptor anta ...

[6] = target: Lasius niger inotocin receptor (Lasius niger)
[7] = target: Tribolium castaneum inotocin receptor (Tribolium castaneum)
[8] = T. castaneum receptor, IP1 accumulation, HEK293
[9] = L. niger receptor, IP1 accumulation, HEK293

In the case of “kalata B7: plant-derived cyclic peptide (cyclotide) from Oldenlandia affinis, synthesised by Fmoc-SPPS and native chemical ligation (cyclo(GLPVCGETCTLGTCYTQGCTCSWPICKRN); also: oxidized form, disulfides not placed)”, the Emax ([1]; HEK293 cells expressing T. castaneum receptor (C-terminal EGFP fusion), IP-One HTRF assay, 1 h at 37 °C, mean ± S.E.M. from at least three independent experiments in triplicate) is reported as 60.3 ± 9.6 % inotocin max. response, the LogEC50 ([1]; HEK293 cells expressing T. castaneum receptor (C-terminal EGFP fusion), IP-One HTRF assay, pH 7.4, 1 h at 37 °C, mean ± S.E.M. from at least three independent experiments in triplicate) is reported as −5.14 ± 0.22 Log[M] and the “agonist activity (in words)” value [1, 8] is reported as “weak partial agonist”. It also gave an EC50 ([1]; T. castaneum receptor, IP1 accumulation, HEK293, read-out: potency) of 7.2 µM, an Emax [2] of 86.5 ± 4.7 % inotocin max. response and a LogEC50 [2] of −5.66 ± 0.10 Log[M]. For the same molecule, the “agonist activity (in words)” value [2, 9] was “weak partial agonist”, the EC50 ([2]; L. niger receptor, IP1 accumulation, HEK293, read-out: potency) was 2.2 µM and the “effects on cell viability” value (HEK293 cells) was “did not observe negative effects on cell viability”. For the same molecule, the “activity at human oxytocin receptor (in words)” value (human oxytocin receptor) was “partial agonist” and the “activity at human vasopressin V1a receptor (in words)” value [3] was “partial agonist”.

In the case of atosiban, the “agonist activity (in words)” value [1, 8] is reported as “lacked agonist activity”, the Emax [2] is reported as 89.9 ± 4.5 % inotocin max. response and the LogEC50 [2] is reported as −5.81 ± 0.12 Log[M]. For the same molecule, the “agonist activity (in words)” value [2, 9] was “partial agonist”, the “antagonism of inotocin (in words)” value ([4]; dextral displacement of the inotocin concentration-response curve) was “competitively inhibits the T. castaneum inotocin receptor; also recorded: selectively antagonises the T. castaneum receptor” and the estimated functional affinity ([4]; from Schild analysis (pA2), competitive antagonism of inotocin) was “approximately 93 nM”. The pA2 ([4]; inotocin 1 pM – 10 µM in absence or presence of 100 nM, 1 µM, 3 µM, 10 µM atosiban, Schild analysis, mean ± S.E.M. of three independent experiments in triplicate) was 7.03 ± 0.086 and the “Schild Slope” value ([4]; inotocin 1 pM – 10 µM in absence or presence of 100 nM, 1 µM, 3 µM, 10 µM atosiban, mean ± S.E.M. of three independent experiments in triplicate) was 1.00 ± 0.085.

For “oxytocin: reported agonist of the T. castaneum receptor”, the “agonist activity at T. castaneum receptor (in words)” value [5] is listed as “agonist”.

B1: kalata B7 (peptide)
peptide: cyclo(GLPVCGETCTLGTCYTQGCTCSWPICKRN)
modifications: disulfide (positions not given here); also: oxidized, disulfide pairing not given here
B1 gave an Emax of receptor-mediated IP1 accumulation in HEK293 cells expressing the L. niger inotocin receptor (% inotocin max. response) [6] of 86.5, a LogEC50 of receptor-mediated IP1 accumulation in HEK293 cells expressing the L. niger inotocin receptor [6] of -5.66 Log[M] and an Emax of receptor-mediated IP1 accumulation in HEK293 cells expressing the T. castaneum inotocin receptor (% inotocin max. response) [7] of 60.3. It also gave a LogEC50 of receptor-mediated IP1 accumulation in HEK293 cells expressing the T. castaneum inotocin receptor [7] of -5.14 Log[M].

In the case of CLITNCPRG-NH2 (disulfide 1-6 (inferred)) [inotocin], the Emax of receptor-mediated IP1 accumulation in HEK293 cells expressing the L. niger inotocin receptor (the reference response) (% inotocin max. response) [6] is reported as 100, the LogEC50 of receptor-mediated IP1 accumulation in HEK293 cells expressing the L. niger inotocin receptor [6] is reported as -10.2 Log[M] and the Emax of receptor-mediated IP1 accumulation in HEK293 cells expressing the T. castaneum inotocin receptor (the reference response) [7] is reported as 100%. It also gave a LogEC50 of receptor-mediated IP1 accumulation in HEK293 cells expressing the T. castaneum inotocin receptor [7] of -9.63 Log[M].
